Results: patent EP0377642B1, “HERBICIDES FOR WEED CONTROL IN RICE” (E.I. DU PONT DE NEMOURS AND COMPANY, priority 1987, dated 1989)
Where two headings read alike, the source gives them in different places.

Assays:
Format in all cases: in vivo
Cyperus iria [1] = assay: Field test with Bensulfuron methyl in direct seeded rice (Table 10); conditions: 10 = complete control
Text: (§1) Methyl 2-[[[[(4-methoxy-6-methyl-1,3,5-triazin-2-yl)amino]carbonyl]amino]sulfonyl]benzoate (Compound 1) and mixtures thereof with other compounds were applied as a spray (using a hand sprayer) to rice (either transplanted or direct seeded) in several rice growing areas in Southeast Asia and in the U.S. Tables 1-28 contain the results of these tests and clearly exemplify the utility of this invention. The details of each application are included in the appropriate table. [drawing 2]

Marsilea crenata = assay: as above; conditions: 10 = complete control
Text: as §1

Sphenoclea zeylanica [2] = assay: as above; conditions: 10 = complete control
Text: as §1

direct seeded rice [3] = assay: Field test with Bensulfuron methyl in direct seeded rice, yield (Table 10)
Text: as §1

direct seeded rice [4] = conditions: for PHYTO at 2WAA: scale 0-10
Text: as §1

Cyperus difformis = assay: Field test applied at 7 DAS in direct seeded rice (Table 11); conditions: scale 0-10
Text: as §1

Sphenoclea zeylanica [5] = assay: as above; conditions: scale 0-10
Text: as §1

Cyperus iria [6] = assay: Field test applied at 18 DAS in direct seeded rice (Table 12); conditions: scale 0-10
Text: as §1

FIMBRISTYLIS MILIACEA = assay: as above; conditions: scale 0-10
Text: as §1

Jussiaea linifolia = assay: as above; conditions: scale 0-10
Text: as §1

Sphenoclea zeylanica [7] = assay: as above; conditions: scale 0-10
Text: as §1

Cyperus iria [8] = assay: Field test applied at 25 DAS in direct seeded rice (Table 13); conditions: scale 0-10
Text: as §1

Sphenoclea zeylanica [9] = assay: as above; conditions: scale 0-10
Text: as §1

direct seeded rice [10] = assay: Field test applied 7 DAS in direct seeded rice in the Philippines, phytotoxicity (Table 14); conditions: 30 DAA
Text: as §1

COC(=O)c1ccccc1CS(=O)(=O)NC(=O)Nc1nc(OC)cc(OC)n1 [Bensulfuron methyl, methyl 2-[[[[[(4,6-dimethoxy-2-pyrimidinyl)amino]carbonyl]amino]sulfonyl]methyl]benzoate]
WEEDS CONTROL at 4 WAA CI (Cyperus iria [1]; 10 GAI/HA): 2 | WEEDS CONTROL at 4 WAA CI (Cyperus iria [1]; 20 GAI/HA): 8 | WEEDS CONTROL at 4 WAA MC (Marsilea crenata; 10 GAI/HA): 0 | WEEDS CONTROL at 4 WAA MC (Marsilea crenata; 20 GAI/HA): 3.33 | WEEDS CONTROL at 4 WAA SZ (Sphenoclea zeylanica [2]; 10 GAI/HA): 0 | WEEDS CONTROL at 4 WAA SZ (Sphenoclea zeylanica [2]; 20 GAI/HA): 6 | YIELD (direct seeded rice [3]; 10 GAI/HA): 3.04 TONS/HA | YIELD (direct seeded rice [3]; 20 GAI/HA): 3.34 TONS/HA | YIELD (direct seeded rice [4]; 7 DAS, 10 GM.A.I./HA): 4.92 TONS/HA | PHYTO at 2WAA (direct seeded rice [4]; 7 DAS, 10 GM.A.I./HA): 0 | YIELD (direct seeded rice [4]; 7 DAS, 15 GM.A.I./HA): 4.99 TONS/HA | PHYTO at 2WAA (direct seeded rice [4]; 7 DAS, 15 GM.A.I./HA): 0 | YIELD (direct seeded rice [4]; 7 DAS, 20 GM.A.I./HA): 5.01 TONS/HA | PHYTO at 2WAA (direct seeded rice [4]; 7 DAS, 20 GM.A.I./HA): 0 | YIELD (direct seeded rice [4]; 7 DAS, 30 GM.A.I./HA): 4.67 TONS/HA | PHYTO at 2WAA (direct seeded rice [4]; 7 DAS, 30 GM.A.I./HA): 0 | YIELD (direct seeded rice [4]; 18 DAS, 10 GM.A.I./HA): 4.61 TONS/HA | PHYTO at 2WAA (direct seeded rice [4]; 18 DAS, 10 GM.A.I./HA): 0 | YIELD (direct seeded rice [4]; 18 DAS, 15 GM.A.I./HA): 4.49 TONS/HA | PHYTO at 2WAA (direct seeded rice [4]; 18 DAS, 15 GM.A.I./HA): 0 | YIELD (direct seeded rice [4]; 18 DAS, 20 GM.A.I./HA): 4.61 TONS/HA | PHYTO at 2WAA (direct seeded rice [4]; 18 DAS, 20 GM.A.I./HA): 0 | YIELD (direct seeded rice [4]; 18 DAS, 30 GM.A.I./HA): 5.17 TONS/HA | PHYTO at 2WAA (direct seeded rice [4]; 18 DAS, 30 GM.A.I./HA): 0 | WEED CONTROL at 6 WAA CD (Cyperus difformis; 10 GM.A.I./HA): 10 | WEED CONTROL at 6 WAA CD (Cyperus difformis; 15 GM.A.I./HA): 10 | WEED CONTROL at 6 WAA CD (Cyperus difformis; 20 GM.A.I./HA): 10 | WEED CONTROL at 6 WAA CD (Cyperus difformis; 30 GM.A.I./HA): 10 | WEED CONTROL at 6 WAA SZ (Sphenoclea zeylanica [5]; 10 GM.A.I./HA): 10 | WEED CONTROL at 6 WAA SZ (Sphenoclea zeylanica [5]; 15 GM.A.I./HA): 10 | WEED CONTROL at 6 WAA SZ (Sphenoclea zeylanica [5]; 20 GM.A.I./HA): 10 | WEED CONTROL at 6 WAA SZ (Sphenoclea zeylanica [5]; 30 GM.A.I./HA): 10 | WEED CONTROL at 6 WAA CI (Cyperus iria [6]; 10 GM.A.I./HA): 6.67 | WEED CONTROL at 6 WAA CI (Cyperus iria [6]; 15 GM.A.I./HA): 9.0 | WEED CONTROL at 6 WAA CI (Cyperus iria [6]; 20 GM.A.I./HA): 9.33 | WEED CONTROL at 6 WAA CI (Cyperus iria [6]; 30 GM.A.I./HA): 9.67 | WEED CONTROL at 6 WAA FM (FIMBRISTYLIS MILIACEA; 10 GM.A.I./HA): 10 | WEED CONTROL at 6 WAA FM (FIMBRISTYLIS MILIACEA; 15 GM.A.I./HA): 9.67 | WEED CONTROL at 6 WAA FM (FIMBRISTYLIS MILIACEA; 20 GM.A.I./HA): 10 | WEED CONTROL at 6 WAA FM (FIMBRISTYLIS MILIACEA; 30 GM.A.I./HA): 10 | WEED CONTROL at 6 WAA JL (Jussiaea linifolia; 10 GM.A.I./HA): 8.0 | WEED CONTROL at 6 WAA JL (Jussiaea linifolia; 15 GM.A.I./HA): 7.67 | WEED CONTROL at 6 WAA JL (Jussiaea linifolia; 20 GM.A.I./HA): 9.50 | WEED CONTROL at 6 WAA JL (Jussiaea linifolia; 30 GM.A.I./HA): 8.67 | WEED CONTROL at 6 WAA SZ (Sphenoclea zeylanica [7]; 10 GM.A.I./HA): 5.67 | WEED CONTROL at 6 WAA SZ (Sphenoclea zeylanica [7]; 15 GM.A.I./HA): 6.67 | WEED CONTROL at 6 WAA SZ (Sphenoclea zeylanica [7]; 20 GM.A.I./HA): 5.67 | WEED CONTROL at 6 WAA SZ (Sphenoclea zeylanica [7]; 30 GM.A.I./HA): 9.67 | WEED CONTROL at 6 WAA CI (Cyperus iria [8]; 10 GM.A.I./HA): 9.67 | WEED CONTROL at 6 WAA CI (Cyperus iria [8]; 15 GM.A.I./HA): 9.83 | WEED CONTROL at 6 WAA CI (Cyperus iria [8]; 20 GM.A.I./HA): 10 | WEED CONTROL at 6 WAA CI (Cyperus iria [8]; 30 GM.A.I./HA): 10 | WEED CONTROL at 6 WAA SZ (Sphenoclea zeylanica [9]; 10 GM.A.I./HA): 9.17 | WEED CONTROL at 6 WAA SZ (Sphenoclea zeylanica [9]; 15 GM.A.I./HA): 9.80 | WEED CONTROL at 6 WAA SZ (Sphenoclea zeylanica [9]; 20 GM.A.I./HA): 9.50 | WEED CONTROL at 6 WAA SZ (Sphenoclea zeylanica [9]; 30 GM.A.I./HA): 9.93 | PHYTO (1-9) (direct seeded rice [10]; 8.25 G AI/HA): 1.3 | PHYTO (1-9) (direct seeded rice [10]; 12.0 G AI/HA): 1 | PHYTO (1-9) (direct seeded rice [10]; 16.50 G AI/HA): 1.7
